As a reminder, the Emax is the size of the effect at its maximum, as opposed to the concentration needed.

This assay concerns the target human OX2R (Homo sapiens (Human), UniProt O43614). The experiment in a line: IPOne (IP-One, Cisbio) orexin receptor agonist assay in CHO cells expressing human OX2R. The conditions noted are these: hOX2R_IP, percentage of mean max effect of a reference compound at 1 uM (100% activity vs Orexin A).

human OX2R, sequence (O43614 whole entry): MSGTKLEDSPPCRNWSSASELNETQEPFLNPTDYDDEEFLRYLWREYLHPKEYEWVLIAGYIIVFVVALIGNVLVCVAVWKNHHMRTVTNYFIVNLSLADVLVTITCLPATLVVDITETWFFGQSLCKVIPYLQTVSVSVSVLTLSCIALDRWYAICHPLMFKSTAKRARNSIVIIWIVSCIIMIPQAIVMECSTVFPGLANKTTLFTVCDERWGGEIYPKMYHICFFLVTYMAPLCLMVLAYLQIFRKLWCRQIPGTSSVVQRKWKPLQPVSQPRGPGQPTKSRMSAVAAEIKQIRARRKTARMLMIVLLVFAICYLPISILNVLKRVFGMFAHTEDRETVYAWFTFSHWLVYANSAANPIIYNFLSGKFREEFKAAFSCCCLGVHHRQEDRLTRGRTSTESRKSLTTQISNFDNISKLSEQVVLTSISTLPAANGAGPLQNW
Procedure: Both the OX1R and/or OX2R G-coupled protein receptors (GPCRs) couple through the Gaq signaling pathway, which ultimately promotes calcium mobilization via inositol triphosphate (IP3) production.
In a typical experiment, the OX1 and OX2 receptor agonist activity is determined in accordance with the following general experimental method. Chinese hamster ovary (CHO) cells expressing human OX1R and/or the human OX2R were grown in Iscove's modified DMEM containing glutaMAX®, 1% G418, 100 U/mL penicillin, 100 μg/mL streptomycin and 10% heat-inactivated qualified fetal bovine serum (FBS). […] During this incubation, IP-one detection reagents were prepared (38:1:1 lysis buffer:D2:AB-cryptate reagents).
For each compound, data were fit to a four parameter logistic fit (ActivityBase software) and the EC50 was reported as the inflection point of the resulting curve.

In the case of `COC(=O)N1[C@H](C)C[C@H](NS(C)(=O)=O)[C@@H]1CO[C@H]1CC[C@H](c2cc(F)cc(F)c2)CC1` [Example 72, Methyl (2R,3S,5R)-2-((((1r,4R)-4-(3,5-difluorophenyl)cyclohexyl)oxy)methyl)-5-methyl-3-(methylsulfonamido)pyrrolidine-1-carboxylate], the “Emax (%)” value is listed as 100%.
Under “CHO”, `COC(=O)N1[C@H](C)C[C@H](NS(C)(=O)=O)[C@@H]1CO[C@H]1CC[C@@H](c2ccc(F)c(F)c2)CC1` [Example 73, Methyl (2R,3S,5R)-2-((((1s,4S)-4-(3,4-difluorophenyl)cyclohexyl)oxy)methyl)-5-methyl-3-(methylsulfonamido)pyrrolidine-1-carboxylate] displayed a maximal response (Emax) of 101%.
“methyl (CIS)-5-ethynyl-3-(methylsulfonamido)-2-((((CIS)-4-phenylcyclohexyl)oxy)methyl)-pyrrolidine-1-carboxylate [Example 47]”: the “Emax (%)” value was found to be 101%.

Values taken from patent US11098029B2, “5-alkyl pyrrolidine orexin receptor agonists” (Merck Sharp & Dohme Corp., priority 2019, dated 2021).
